What was measured:
[1] = Zeta potential of nanoparticles (electrophoretic light scattering); type: physicochemical
Description: Zeta potential is a measurement of the magnitude of the electrostatic or charge repulsion/attraction between particles. This can be determined by analysing particle mobility and charge (Zeta potential) using the Electrophoretic Light Scattering (ELS) technique.
Zeta potential is a measurement of the magnitude of the electrostatic or charge repulsion/attraction between particles. This can be determined by analysing particle mobility and charge (Zeta potential) using the Electrophoretic Light Scattering (ELS) technique. […] Parameters: reference material: polystyrene latex, dispersant: water, 25° C. The measurements of the zeta potential were carried out using the Zetasizer Advance Series—Pro (Malvern Panalytical Ltd, Malvern, UK) according to the manufacturer's instructions.

lung and spleen = experiment: Luciferase mRNA expression in mouse tissues after intravenous administration (bioluminescence); type: in vivo, Balb/c mice; settings: 6 hours, DOTMA/DOPE w/w=23:1 to mRNA, dendrimers NP=0.6:1, FIG. 11
Procedure: All animal procedures were conducted following the Animal Research Reporting of In Vivo Experiments and approved by the UK Home Office for the conduct of regulated procedures under license. For the data underlying FIG. 11, Balb/c mice aged 4 weeks were purchased from Jackon's Laboratory and left to acclimate in the new housing environment for 1-week upon their arrival. All mice were weighed and warmed for 15 min at 37 C in a heating chamber. The formulations were delivered intravenously (5 mL/kg) via the tail vein using 30 G insulin syringes (BD biosciences).
All mice were imaged 6 hours post injection. BLI was performed using an IVIS Lumina II (Perkin Elmer) imaging system. Mice were administered D-luciferin (GoldBio) at a dose of 10 uL/g. Mice were anaesthetised in a chamber with 2.5% isoflurane and then placed on a heated imaging platform while being maintained on 2.5% isoflurane. For the data underlying FIG. 11, mice were imaged 10 min post administration of D-luciferin with an exposure time set at 45 sec to ensure the signal acquired was within an effective detection range (binning medium). Bioluminescence signal was quantified by measuring photon flux (photons/s) using the Living Image software (Perkin Elmer). […] The organs were placed in the centre of imaging platform (Lumina II system) and signal was measured using the acquisition settings detailed above. […]

human THP-1 cells = experiment: eGFP mRNA transfection of human THP-1 macrophages, flow cytometry; type: cell-based; settings: THP-1, FIG. 3
Procedure: THP-1 cells (a human leukaemia monocytic cell line) were sub-cultured in RPMI (with glutamax)+10% heat inactivated FBS (complete media) at 3E+5 cells/ml and passaged every 3-4 days. For macrophage polarisation 7.5E+6 cells were seeded in T75 flasks in a total of 20 ml complete media containing 5 ng/ml PMA (1:1000 of 5 ug/ml stock). The cells were transferred to the 37° C. incubator for overnight. After 24 hrs, THP-1 cells were washed with complete medium and a fresh flask complete medium (not containing PMA) was overlaid on the cells. After a further 72 hrs, the complete medium was exchanged for fresh complete media containing 20 ng/ml rhlL-4 (1:500 of 10 μg/ml stock). 24 hrs later the cells were harvested by firstly washing the cells with PBS followed by a 5 minute treatment at 37° C. with 5 mM EDTA (diluted in PBS). Cells were spun down at 300 g for 5 minutes and resuspended in a complete medium containing 20 ng/ml rhlL-4 at 2.4E+5 cells/mi. 500 ul of cells were seeded into each well on a 24-well plate and left overnight in the 37° C. incubator.
The medium overlaying the polarised THP-1 cells was aspirated and exchanged with 480 ul/well complete media containing 20 ng/ml rhlL-4. […]
Data were collected using a BD LSRFortessa I analyser running […] software (Beckton Dickinson). All collected data were analysed using FlowJo 10.0 software. […]

- zeta potential ([1]; GSCG1,2-RHL N:P=0.6:1, DOTMA:DOPE, coated with GSGGSGGSCG1-EEEE, with/without CpG (mRNA:CpG w/w 9:1)): +48 mV
- Zeta potential measurement ([1]; GSCG1,2-RHL and DOTMA:DOPE nanoparticles, diluted 3× in 25 mM HEPES, then 60× in water): +33.5 mV
- zeta potential ([1]; mRNA, N:P 0.6:1, DOTMA:DOPE w/w 10:1, with or without 3 equivalents G1-EEEE with mannose coating): 28.23 mV
- delivery of luciferase mRNA cargo to lung and spleen (bioluminescence) (lung and spleen): further improved
Substance: (RHL)4(KRHL)2KGSC-NH2 [GSCG1,2-RHL]
- increase of transfection efficiency at NP=0.6:1 compared to NP=5:1 (human THP-1 cells): approximately 10%

From patent publication US20260014278A1, “HYBRID PEPTIDE DENDRIMER SYSTEMS AND EXTRAHEPATIC DELIVERY” (NUNTIUS THERAPEUTICS LIMITED, priority 2022, published 2026)
